US11752161B2, “Pharmaceutical compositions, method of making and method of using thereof” (Gannex Pharma Co., Ltd., priority 2020, dated 2023)

Assay: Solubility of the compound of Formula (I) in aqueous media without surfactant
Format: physicochemical
Details: aqueous buffer; hydrochloric acid solution, buffer, and water without surfactant, 37° C., pH 1.0˜9.0
Description: The very low solubility limits its use in the development as a drug candidate. Chinese patent application 202010105909.9 reports a semi-solid capsule technology that can substantially increase the dissolution of the compound shown in Formula (I), but the capsule needs to be stored in a cool place below room temperature, not exceeding 15° C., specifically in a closed container at 2 to 8° C.

SMILES: Cc1cc(OC[P@@]2(=O)OCC[C@@H](c3cccc(Cl)c3)O2)cc(C)c1Cc1ccc(O)c(C(C)C)c1 [Formula (I) compound]
- solubility: < 0.5 ng/mL
